Among the data in ChEMBL document CHEMBL3351925, “The Oxeatamides: nitrogenous spongian diterpenes from the New Zealand marine sponge Darwinella oxeata” (J Nat Prod, 2014) are IC50 values, retold here.

This experiment is described as follows: Cytotoxicity against human HL60 cells after 48 hrs by MTT assay. Format: functional, cell-based. Particulars: HL-60, 48 h. On the technique in general: Tetrazolium dyes change colour on reduction, which living cells bring about.

In turn, `C[C@@H](C(=O)O)c1c([C@@]2(C)CCCC(C)(C)C2)ccc2c1CN(CC(=O)O)C2=O` displayed an IC50 above 10 µM.

`C[C@@H](C(=O)O)c1c([C@@]2(C)CCCC(C)(C)C2)ccc2c1C(=O)N(CC(=O)O)C2` showed an IC50 above 10 µM.

The molecule `C[C@@H](C(=O)O)c1c([C@@]2(C)CCCC(C)(C)C2)ccc2c1CN(CCc1cnc[nH]1)C2=O` showed an IC50 above 10 µM.

`C[C@@H](C(=O)O)c1c([C@@]2(C)CCCC(C)(C)C2)ccc2c1CN(CCN)C2=O`: the IC50 is above 10 µM.

Molecule `CC(C)CN1Cc2c(ccc([C@@]3(C)CCCC(C)(C)C3)c2[C@@H](C)C(=O)O)C1=O` displayed an IC50 above 10 µM.

`C[C@@H](C(=O)O)c1c([C@@]2(C)CCCC(C)(C)C2)ccc2c1CN(CCc1ccccc1)C2=O` had an IC50 above 10 µM.

Turning to `CCC(C)CN1Cc2c(ccc([C@@]3(C)CCCC(C)(C)C3)c2[C@@H](C)C(=O)O)C1=O` (some centres undefined), the IC50 was above 10 µM.

As to `CC(C)CCN1Cc2c(ccc([C@@]3(C)CCCC(C)(C)C3)c2[C@@H](C)C(=O)O)C1=O`, the IC50 is above 10 µM.

`COC(=O)CN1Cc2c(ccc([C@@]3(C)CCCC(C)(C)C3)c2[C@@H](C)C(=O)O)C1=O` returned an IC50 above 10 µM.

The IC50 is the concentration at which inhibition is half-maximal.
